Measured values from publication PMC5714945, “A homologue of the Parkinson’s disease-associated protein LRRK2 undergoes a monomer-dimer transition during GTP turnover” (Nature Communications, 2017).

Tests used:
[1] = target: T1, CtRoc-COR (Chlorobaculum tepidum, UniProt Q8KC98); assay: SEC-SAXS (conformational change); assay type: binding; settings: pre-incubated with 1 mM, pH 7.5, 5 mM MgCl2
T1 construct: gene CT1526; Roc-COR domains, residues 412-946, N-terminal His-tag (pProEX), E. coli BL21(DE3); dimer nucleotide-free, about 65 kDa monomer
T1 sequence (Q8KC98 412-946): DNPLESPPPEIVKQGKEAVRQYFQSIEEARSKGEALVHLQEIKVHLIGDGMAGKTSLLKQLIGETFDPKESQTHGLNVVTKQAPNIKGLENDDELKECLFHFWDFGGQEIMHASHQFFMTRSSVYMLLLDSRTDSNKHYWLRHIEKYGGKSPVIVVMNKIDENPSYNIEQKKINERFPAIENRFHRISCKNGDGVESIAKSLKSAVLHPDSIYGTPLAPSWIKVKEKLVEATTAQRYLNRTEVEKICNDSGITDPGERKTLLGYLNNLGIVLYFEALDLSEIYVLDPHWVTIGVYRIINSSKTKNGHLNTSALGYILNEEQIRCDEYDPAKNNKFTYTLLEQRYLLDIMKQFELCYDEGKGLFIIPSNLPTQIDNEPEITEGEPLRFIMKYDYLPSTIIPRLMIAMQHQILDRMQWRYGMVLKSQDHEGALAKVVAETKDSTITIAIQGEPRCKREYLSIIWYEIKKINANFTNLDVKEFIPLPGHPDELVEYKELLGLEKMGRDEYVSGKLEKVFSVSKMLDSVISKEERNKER

[2] = target: T2, CtRoco (Chlorobaculum tepidum, UniProt Q8KC98); assay: SEC-SAXS, AUC, negative-stain EM (conformational and oligomeric change); assay type: binding; settings: pre-incubated with 1 mM (SAXS, EM), pH 7.5, 5 mM MgCl2
T2 construct: gene CT1526; full length, residues 1-1102, N-terminal His-tag (pProEX), E. coli BL21(DE3); dimer nucleotide-free, monomer/dimer equilibrium with GppNHp
T2 sequence (Q8KC98 1-1102): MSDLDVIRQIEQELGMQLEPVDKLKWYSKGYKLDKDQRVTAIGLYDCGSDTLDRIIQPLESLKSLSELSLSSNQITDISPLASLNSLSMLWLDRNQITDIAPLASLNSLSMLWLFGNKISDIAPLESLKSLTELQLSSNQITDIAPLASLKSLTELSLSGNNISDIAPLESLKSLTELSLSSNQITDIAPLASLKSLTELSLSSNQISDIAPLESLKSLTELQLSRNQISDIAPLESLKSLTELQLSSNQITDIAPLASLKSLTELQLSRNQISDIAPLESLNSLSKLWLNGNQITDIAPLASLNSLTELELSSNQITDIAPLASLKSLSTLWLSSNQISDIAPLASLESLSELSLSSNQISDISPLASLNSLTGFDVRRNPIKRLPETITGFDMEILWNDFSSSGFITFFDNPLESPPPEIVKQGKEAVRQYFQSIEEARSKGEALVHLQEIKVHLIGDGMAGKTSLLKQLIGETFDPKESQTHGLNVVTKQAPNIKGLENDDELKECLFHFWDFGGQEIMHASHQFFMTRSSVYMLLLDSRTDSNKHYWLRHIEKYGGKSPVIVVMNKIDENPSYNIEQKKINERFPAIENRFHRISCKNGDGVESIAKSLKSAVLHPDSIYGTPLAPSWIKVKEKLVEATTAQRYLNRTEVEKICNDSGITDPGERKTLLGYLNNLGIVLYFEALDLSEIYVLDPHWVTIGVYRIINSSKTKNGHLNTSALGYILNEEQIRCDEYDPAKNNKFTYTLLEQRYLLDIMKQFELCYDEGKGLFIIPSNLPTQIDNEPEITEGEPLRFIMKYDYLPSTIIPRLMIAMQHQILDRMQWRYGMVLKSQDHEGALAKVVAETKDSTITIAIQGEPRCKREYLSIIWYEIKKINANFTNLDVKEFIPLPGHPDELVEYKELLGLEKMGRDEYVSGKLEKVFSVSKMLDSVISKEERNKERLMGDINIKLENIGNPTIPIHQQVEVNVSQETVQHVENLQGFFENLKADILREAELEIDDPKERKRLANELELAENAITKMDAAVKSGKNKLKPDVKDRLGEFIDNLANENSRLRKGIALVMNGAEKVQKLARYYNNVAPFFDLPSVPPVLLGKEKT

Nc1nc2c(ncn2[C@@H]2O[C@H](COP(=O)(O)OP(=O)(O)O)[C@@H](O)[C@H]2O)c(=O)[nH]1 [GDP]
SEC-SAXS (conformational change) [1]: when CtRoc-COR is saturated with either GDP or GppNHp conformational changes are taking place
SEC-SAXS, AUC, negative-stain EM (conformational and oligomeric change) [2]: conformational changes occur in both the CtRoco GppNHp- and GDP-bound states
